Assay results: patent US20220289794A1, “SYNTHETIC ANTIMICROBIAL PEPTIDES” (priority 2019, published 2022)
In brackets after ≈: the same amount, converted by molar mass. Read-outs that look alike come from different tables or passages of the source. Non-standard residues stand in square brackets, D forms with d. Residues, ends and D or L forms follow the SMILES beside them. Bip = N[C@@H](Cc1ccc(-c2ccccc2)cc1)C(=O)O; Dip = N[C@H](C(=O)O)C(c1ccccc1)c1ccccc1; 2Nal = N[C@@H](Cc1ccc2ccccc2c1)C(=O)O

How the values were obtained:
[1] = system: human red blood cells; design: unit not given beside the values
[2] = system: Pseudomonas aeruginosa (ATCC 27883)
[3] = system: Methicillin-resistant Staphylococcus aureus MRSA (ATCC BAA-1556)
[4] = system: Escherichia coli (ATCC 25922)
[5] = system: S. aureus ATCC 29213

| Compound | MIC P. aeruginosa ATCC 27883 ([2]; ATCC 27883) [mg/L] | MIC MRSA ATCC BAA-1556 ([3]; ATCC BAA-1556) [mg/L] | MIC E. coli ATCC 25922 ([4]; ATCC 25922) [mg/L] | MIC S. aureus ATCC 29213 ([5]; ATCC 29213) [mg/L] | MIC P. aeruginosa ATCC 27883 [2] [mg/L] | MIC MRSA ATCC BAA-1556 [3] [mg/L] | MIC E. coli ATCC 25922 [4] [mg/L] | MIC S. aureus ATCC 29213 [5] [mg/L] | other results |
| --- | --- | --- | --- | --- | --- | --- | --- | --- | --- |
| N=C(N)NCCC[C@@H]1NC(=O)[C@H](CCCNC(=N)N)NC(=O)[C@H](CCCNC(=N)N)NC(=O)[C@H](Cc2ccc3ccccc3c2)NC(=O)[C@H](Cc2c[nH]c3ccccc23)NC(=O)[C@H](Cc2ccc3ccccc3c2)NC(=O)[C@H](CCCNC(=N)N)NC1=O [IFX-030, c[Arg-Arg-Arg-Arg-NaI-Trp-NaI]] (cyclo(RRRR[2Nal]W[2Nal])) |  |  |  |  |  |  |  |  | HC50 [1]: 430 |
| N=C(N)NCCC[C@H](NC(=O)[C@H](CCCNC(=N)N)NC(=O)[C@H](CCCNC(=N)N)NC(=O)[C@@H](N)CCCNC(=N)N)C(=O)N[C@@H](Cc1ccc(-c2ccccc2)cc1)C(=O)N[C@@H](Cc1ccc(-c2ccccc2)cc1)C(=O)N[C@@H](Cc1ccc(-c2ccccc2)cc1)C(=O)N[C@@H](Cc1ccc(-c2ccccc2)cc1)C(=O)O [IFX-004-1, NH2-Arg-Arg-Arg-Arg-Bip-Bip-Bip-Bip-OH] (H-RRRR[Bip][Bip][Bip][Bip]-OH) | >100 | >100 | >100 | >100 |  |  |  |  |  |
| N=C(N)NCCC[C@H](NC(=O)[C@H](CCCNC(=N)N)NC(=O)[C@H](CCCNC(=N)N)NC(=O)[C@@H](N)CCCNC(=N)N)C(=O)N[C@@H](CCCNC(=N)N)C(=O)N[C@H](C(=O)N[C@H](C(=O)N[C@H](C(=O)O)C(c1ccccc1)c1ccccc1)C(c1ccccc1)c1ccccc1)C(c1ccccc1)c1ccccc1 [IFX-012-1, NH2-Arg-Arg-Arg-Arg-Arg-Dip-Dip-Dip-OH] (H-RRRRR[Dip][Dip][Dip]-OH) | 50 (≈ 34 µM) | 3.1 (≈ 2.11 µM) | 25 (≈ 17 µM) | 3.1 (≈ 2.11 µM) |  |  |  |  |  |
| N=C(N)NCCC[C@@H]1NC(=O)[C@H](CCCNC(=N)N)NC(=O)[C@H](CCCNC(=N)N)NC(=O)[C@H](Cc2ccc(-c3ccccc3)cc2)NC(=O)[C@H](Cc2ccc(-c3ccccc3)cc2)NC(=O)[C@H](Cc2ccc(-c3ccccc3)cc2)NC(=O)[C@H](CCCNC(=N)N)NC1=O [IFX-007, c[Arg-Arg-Arg-Arg-Bip-Bip-Bip]] (cyclo([Bip][Bip][Bip]RRRR)) | 25 (≈ 19.3 µM) | 6.2 (≈ 4.79 µM) | >100 | 3.1 (≈ 2.39 µM) |  |  |  |  |  |
| c[Arg-Arg-Arg-Arg-5brW-5brW-5brW-5brW] [IFX-039] |  |  |  |  | >100 | 25 | >100 | 25 |  |
| N=C(N)NCCC[C@H](NC(=O)[C@H](CCCNC(=N)N)NC(=O)[C@H](CCCNC(=N)N)NC(=O)[C@@H](N)CCCNC(=N)N)C(=O)N[C@@H](Cc1ccc(-c2ccccc2)cc1)C(=O)N[C@@H](Cc1ccc(-c2ccccc2)cc1)C(=O)N[C@@H](Cc1ccc(-c2ccccc2)cc1)C(=O)O [IFX-007-1, NH2-Arg-Arg-Arg-Arg-Bip-Bip-Bip-OH] (H-RRRR[Bip][Bip][Bip]-OH) | 25 (≈ 19 µM) | 6.2 (≈ 4.72 µM) | >100 | 6.2 (≈ 4.72 µM) |  |  |  |  |  |
| c[Arg-arg-Arg-arg-PEG4-Trp-naI-naI] [IFX-051] |  |  |  |  | 128 | 32 | 128 | 32 |  |
| c[PEG2-Arg-Arg-Arg-Arg-Arg-PEG2-Dip-Dip-Dip] [IFX-050-2] |  |  |  |  | 128 | 16 | 64 | 16 |  |
| c[Arg-Arg-Arg-Arg-1meW-1meW-1meW-1meW] [IFX-041] |  |  |  |  | 25 | 6.2 | 25 | 3.1 |  |
| c[PEG2-Arg-Arg-Arg-Arg-PEG2-Trp-Trp-Trp-Trp] [IFX-047] |  |  |  |  | 50 | 50 | 100 | 50 |  |
| N=C(N)NCCC[C@@H]1NC(=O)[C@H](CCCNC(=N)N)NC(=O)[C@H](Cc2c[nH]c3ccccc23)NC(=O)[C@H](Cc2ccc3ccccc3c2)NC(=O)[C@H](Cc2ccc3ccccc3c2)NC(=O)[C@H](CCCNC(=N)N)NC1=O [IFX-025, c[Arg-Arg-Arg-NaI-NaI-Trp]] (cyclo(RRR[2Nal][2Nal]W)) |  |  |  |  |  |  |  |  | HC50 [1]: 190 |
| N=C(N)NCCC[C@@H]1NC(=O)[C@H](CCCNC(=N)N)NC(=O)[C@H](CCCNC(=N)N)NC(=O)[C@H](Cc2ccc3ccccc3c2)NC(=O)[C@H](Cc2ccc3ccccc3c2)NC(=O)[C@H](Cc2c[nH]c3ccccc23)NC(=O)[C@H](CCCNC(=N)N)NC1=O [IFX-029, c[Arg-Arg-Arg-Arg-Trp-NaI-NaI]] (cyclo(RRRRW[2Nal][2Nal])) |  |  |  |  |  |  |  |  | HC50 [1]: 200 |
| c[Arg-arg-PEG4-Arg-arg-Trp-naI-naI] [IFX-052] |  |  |  |  | 128 | 32 | 64 | 32 |  |
| N=C(N)NCCC[C@@H]1NC(=O)[C@H](CCCNC(=N)N)NC(=O)[C@H](Cc2c[nH]c3ccccc23)NC(=O)[C@H](Cc2c[nH]c3ccccc23)NC(=O)[C@H](Cc2c[nH]c3ccccc23)NC(=O)[C@H](Cc2c[nH]c3ccccc23)NC(=O)[C@H](Cc2c[nH]c3ccccc23)NC(=O)[C@H](Cc2c[nH]c3ccccc23)NC(=O)[C@H](Cc2c[nH]c3ccccc23)NC(=O)[C@H](CCCNC(=N)N)NC1=O [IFX-306] (cyclo(RRRWWWWWWW)) |  |  |  |  |  |  |  |  | MIC P. aeruginosa ATCC 27883 ([2]; Table 19): 256 mg/L (≈ 144 µM) |
| N=C(N)NCCC[C@H]1NC(=O)[C@H](Cc2c[nH]c3ccccc23)NC(=O)[C@H](Cc2c[nH]c3ccccc23)NC(=O)[C@H](Cc2c[nH]c3ccccc23)NC(=O)[C@H](Cc2c[nH]c3ccccc23)NC(=O)[C@@H](CCCNC(=N)N)NC(=O)[C@@H](CCCNC(=N)N)NC(=O)[C@@H](CCCNC(=N)N)NC1=O [IFX-309] (cyclo([dR][dR][dR][dR]WWWW)) |  |  | 16 (≈ 11.7 µM) |  |  |  |  |  |  |
| c[PEG4-Arg-arg-Arg-arg-Trp-naI-naI] [IFX-053] |  |  |  |  | 128 | 16 | 64 | 16 |  |
| N=C(N)NCCC[C@@H]1NC(=O)CNC(=O)CNC(=O)[C@H](Cc2c[nH]c3ccccc23)NC(=O)[C@H](Cc2c[nH]c3ccccc23)NC(=O)[C@H](Cc2c[nH]c3ccccc23)NC(=O)[C@H](Cc2c[nH]c3ccccc23)NC(=O)CNC(=O)CNC(=O)[C@H](CCCNC(=N)N)NC(=O)[C@H](CCCNC(=N)N)NC(=O)[C@H](CCCNC(=N)N)NC1=O [IFX-044] (cyclo(GGRRRRGGWWWW)) | 50 (≈ 31.3 µM) | 25 (≈ 15.6 µM) | 50 (≈ 31.3 µM) | 25 (≈ 15.6 µM) |  |  |  |  |  |
| c[Arg-Arg-Arg-Arg-7metW-7metW-7metW-7metW] [IFX-042] |  |  |  |  | 50 | 6.2 | 25 | 6.1 |  |
| c[PEG2-Arg-Arg-Arg-Arg-PEG2-Dip-Dip-Dip] [IFX-049] |  |  |  |  | 64 | 8 | 128 | 8 |  |
| c[PEG1-Arg-Arg-Arg-Arg-Arg-PEG1-Dip-Dip-Dip] [IFX-050-1] |  |  |  |  | 128 | 32 | 32 | 16 |  |
| N=C(N)NCCC[C@@H]1NC(=O)[C@H](CCCNC(=N)N)NC(=O)[C@H](CCCNC(=N)N)NC(=O)[C@H](Cc2ccc(-c3ccccc3)cc2)NC(=O)[C@H](Cc2ccc(-c3ccccc3)cc2)NC(=O)[C@H](Cc2ccc(-c3ccccc3)cc2)NC(=O)[C@H](Cc2ccc(-c3ccccc3)cc2)NC(=O)[C@H](CCCNC(=N)N)NC1=O [IFX-004, c[Arg-Arg-Arg-Arg-Bip-Bip-Bip-Bip]] (cyclo([Bip][Bip][Bip][Bip]RRRR)) | >100 | >100 | >100 | 50 (≈ 32.9 µM) |  |  |  |  |  |
| c[Arg-Arg-Arg-Arg-5fW-5fW-5fW-5fW] [IFX-038] |  |  |  |  | 100 | 25 | 50 | 12.5 |  |
| c[PEG1-Arg-Arg-Arg-Arg-PEG1-Trp-Trp-Trp-Trp] [IFX-046] |  |  |  |  | 50 | 25 | 50 | 25 |  |
| c[PEG1-Arg-Arg-Arg-Arg-PEG1-Dip-Dip-Dip] [IFX-048] |  |  |  |  | 64 | 16 | 64 | 16 |  |
| N=C(N)NCCC[C@H](NC(=O)[C@H](CCCNC(=N)N)NC(=O)[C@@H](N)CCCNC(=N)N)C(=O)N[C@@H](Cc1ccc(-c2ccccc2)cc1)C(=O)N[C@@H](Cc1ccc(-c2ccccc2)cc1)C(=O)N[C@@H](Cc1ccc(-c2ccccc2)cc1)C(=O)O [IFX-001-1, NH2-Arg-Arg-Arg-Bip-Bip-Bip-OH] (H-RRR[Bip][Bip][Bip]-OH) | >100 | 50 (≈ 43.2 µM) | >100 | 50 (≈ 43.2 µM) |  |  |  |  |  |
| N=C(N)NCCC[C@@H]1NC(=O)[C@H](CCCNC(=N)N)NC(=O)[C@H](Cc2ccc(-c3ccccc3)cc2)NC(=O)[C@H](Cc2ccc(-c3ccccc3)cc2)NC(=O)[C@H](Cc2ccc(-c3ccccc3)cc2)NC(=O)[C@H](CCCNC(=N)N)NC1=O [IFX-001, c[Arg-Arg-Arg-Bip-Bip-Bip]] (cyclo([Bip][Bip][Bip]RRR)) | >100 | 50 (≈ 43.9 µM) | >100 | 50 (≈ 43.9 µM) |  |  |  |  |  |
